Results as given in the NIST ThermoML archive (doi:10.1016/j.jct.2011.01.014).

Assay: xn = mol fraction of the nth substance listed
Conditions: 101 kPa, Liquid; for speed of sound: sound velocity cell; for mass density: Vibrating tube method

CC(=O)[O-].[NH3+]CCO [2-hydroxyethylammonium acetate] + CO
Conditions | mass density [kg/m3] | speed of sound [m/s]
305.65 K, x1 = 0.0492 | – | 1161.1
305.65 K, x1 = 0.0951 | – | 1224.5
305.65 K, x1 = 0.1987 | – | 1341
305.65 K, x1 = 0.29 | – | 1429.3
305.65 K, x1 = 0.3786 | – | 1500.3
305.65 K, x1 = 0.4825 | – | 1575.7
305.65 K, x1 = 0.6007 | – | 1645.1
305.65 K, x1 = 0.6711 | – | 1681.8
305.65 K, x1 = 0.7797 | – | 1700.1
305.65 K, x1 = 0.8297 | – | 1753.7
305.65 K, x1 = 0.9328 | – | 1750.5
305.65 K, x1 = 1 | – | 1773.4
308.15 K, x1 = 0.0492 | 832.793 | 1153.3
308.15 K, x1 = 0.0951 | 875.068 | 1217
308.15 K, x1 = 0.1987 | 943.548 | 1334
308.15 K, x1 = 0.29 | 988.497 | 1422.7
308.15 K, x1 = 0.3786 | 1021.52 | 1494
308.15 K, x1 = 0.4825 | 1053.6 | 1569.6
308.15 K, x1 = 0.6007 | 1081.57 | 1639.2
308.15 K, x1 = 0.6711 | 1095.97 | 1675.9
308.15 K, x1 = 0.7797 | 1114.95 | 1694.5
308.15 K, x1 = 0.8297 | 1122.74 | 1748
308.15 K, x1 = 0.9328 | 1136.52 | 1744.9
308.15 K, x1 = 1 | 1143.39 | 1767.9
310.65 K, x1 = 0.0492 | 830.575 | 1145.6
310.65 K, x1 = 0.0951 | 872.975 | 1209.6
310.65 K, x1 = 0.1987 | 941.654 | 1327
310.65 K, x1 = 0.29 | 986.73 | 1416
310.65 K, x1 = 0.3786 | 1019.84 | 1487.6
310.65 K, x1 = 0.4825 | 1052.01 | 1563.5
310.65 K, x1 = 0.6007 | 1080.07 | 1633.3
310.65 K, x1 = 0.6711 | 1094.53 | 1670.1
310.65 K, x1 = 0.7797 | 1113.51 | 1689
310.65 K, x1 = 0.8297 | 1121.32 | 1742.3
310.65 K, x1 = 0.9328 | 1135.08 | 1739.3
310.65 K, x1 = 1 | 1141.96 | 1762.5
313.15 K, x1 = 0.0492 | 828.348 | 1137.8
313.15 K, x1 = 0.0951 | 870.876 | 1202.1
313.15 K, x1 = 0.1987 | 939.757 | 1320
313.15 K, x1 = 0.29 | 984.961 | 1409.3
313.15 K, x1 = 0.3786 | 1018.17 | 1481.3
313.15 K, x1 = 0.4825 | 1050.42 | 1557.5
313.15 K, x1 = 0.6007 | 1078.57 | 1627.4
313.15 K, x1 = 0.6711 | 1093.07 | 1664.3
313.15 K, x1 = 0.7797 | 1112.05 | 1683.4
313.15 K, x1 = 0.8297 | 1119.91 | 1736.7
313.15 K, x1 = 0.9328 | 1133.64 | 1733.8
313.15 K, x1 = 1 | 1140.55 | 1757.2
315.65 K, x1 = 0.0492 | 826.113 | 1130.1
315.65 K, x1 = 0.0951 | 868.768 | 1194.7
315.65 K, x1 = 0.1987 | 937.855 | 1313.1
315.65 K, x1 = 0.29 | 983.188 | 1402.7
315.65 K, x1 = 0.3786 | 1016.49 | 1475
315.65 K, x1 = 0.4825 | 1048.81 | 1551.4
315.65 K, x1 = 0.6007 | 1077.07 | 1621.4
315.65 K, x1 = 0.6711 | 1091.61 | 1658.5
315.65 K, x1 = 0.7797 | 1110.6 | 1678
315.65 K, x1 = 0.8297 | 1118.54 | 1731.2
315.65 K, x1 = 0.9328 | 1132.26 | 1728.4
315.65 K, x1 = 1 | 1139.18 | 1751.9
318.15 K, x1 = 0.0492 | 823.867 | 1122.4
318.15 K, x1 = 0.0951 | 866.652 | 1187.2
318.15 K, x1 = 0.1987 | 935.943 | 1306
318.15 K, x1 = 0.29 | 981.405 | 1396.1
318.15 K, x1 = 0.3786 | 1014.8 | 1468.6
318.15 K, x1 = 0.4825 | 1047.21 | 1545.3
318.15 K, x1 = 0.6007 | 1075.56 | 1615.5
318.15 K, x1 = 0.6711 | 1090.14 | 1652.7
318.15 K, x1 = 0.7797 | 1109.14 | 1672.5
318.15 K, x1 = 0.8297 | 1117.15 | 1725.7
318.15 K, x1 = 0.9328 | 1130.88 | 1723
318.15 K, x1 = 1 | 1137.82 | 1746.5
320.65 K, x1 = 0.0492 | 821.611 | 1114.8
320.65 K, x1 = 0.0951 | 864.531 | 1179.8
320.65 K, x1 = 0.1987 | 934.029 | 1299.1
320.65 K, x1 = 0.29 | 979.623 | 1389.4
320.65 K, x1 = 0.3786 | 1013.12 | 1462.3
320.65 K, x1 = 0.4825 | 1045.59 | 1539.3
320.65 K, x1 = 0.6007 | 1074.05 | 1609.6
320.65 K, x1 = 0.6711 | 1088.66 | 1646.9
320.65 K, x1 = 0.7797 | 1107.66 | 1667
320.65 K, x1 = 0.8297 | 1115.77 | 1720.2
320.65 K, x1 = 0.9328 | 1129.49 | 1717.6
320.65 K, x1 = 1 | 1136.45 | 1741.3
323.15 K, x1 = 0.0492 | 819.344 | 1107
323.15 K, x1 = 0.0951 | 862.394 | 1172.3
323.15 K, x1 = 0.1987 | 932.105 | 1292.1
323.15 K, x1 = 0.29 | 977.831 | 1382.7
323.15 K, x1 = 0.3786 | 1011.42 | 1455.9
323.15 K, x1 = 0.4825 | 1043.94 | 1533.2
323.15 K, x1 = 0.6007 | 1072.54 | 1603.7
323.15 K, x1 = 0.6711 | 1087.18 | 1641.1
323.15 K, x1 = 0.7797 | 1106.19 | 1661.7
323.15 K, x1 = 0.8297 | 1114.37 | 1714.7
323.15 K, x1 = 0.9328 | 1128.1 | 1712.3
323.15 K, x1 = 1 | 1135.08 | 1736
